Measurements as given in patent US10344026B2, “Compositions and methods of targeting mutant K-ras” (NANTBIO, INC., priority 2017, dated 2019).

Experiments:
Type in all cases: cell-based
[1] = system: Ishikawa (K-Ras wild type cell line); assay: Viability assay (CellTiterBlue, 72 hr) Ishikawa; settings: Homo sapiens, GI50, CellTiterBlue, Ishikawa K-Ras wild-type
How it was run: (§1)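 Cells were seeded at 1000 per well and allowed 18 hr at 37 °C in CO2 before compound addition (final DMSO 0.5%). After 72 hr exposure, CellTiterBlue was added for 3 hr and fluorescence read at Ex550/Em590. GI50 values were calculated against DMSO (100%) and 100 uM tamoxifen (0%) controls.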

[2] = system: U87-MG (K-Ras wild type cell line); assay: Viability assay (CellTiterBlue, 72 hr) U87-MG; settings: Homo sapiens, U-87 MG, GI50, CellTiterBlue, U87-MG K-Ras wild-type
How it was run: as §1

[3] = system: HCC827 (K-Ras wild type cell line); assay: Viability assay (CellTiterBlue, 72 hr) HCC827; settings: Homo sapiens, GI50, CellTiterBlue, HCC827 K-Ras wild-type
How it was run: as §1

[4] = system: Panc1-G12D; assay: Viability assay (CellTiterBlue, 72 hr) Panc1; settings: Homo sapiens, PANC-1, GI50, CellTiterBlue, Panc1 K-Ras G12D, read-out: 72 hr Cell Viability Panc1 (G12D)
How it was run: as §1

[5] = system: Panc10.05-G12D; assay: Viability assay (CellTiterBlue, 72 hr) Panc10.05; settings: Homo sapiens, Panc1005, GI50, CellTiterBlue, Panc10.05 K-Ras G12D, read-out: 72 hr Cell Viability Panc10.05 (G12D)
How it was run: as §1

[6] = system: HCT116-G31D; assay: Viability assay (CellTiterBlue, 72 hr) HCT116; settings: Homo sapiens, HCT-116, GI50, CellTiterBlue, HCT116 K-Ras G13D, read-out: 72 hr Cell Viability HCT116 (G13D)
How it was run: as §1

[7] = system: phospho-ERK in HCC827 (Wild-type); assay: In-Cell Western phospho-ERK, HCC827; settings: Homo sapiens, 1 h; HCC827, one hour treatment; read-out: In-Cell Western HCC827 (Wild-type) Erk (P)
How it was run: (§2)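 EC50 values come from immunofluorescence quantitation of phosphorylated ERK or Akt in fixed cells exposed to compound for one hour at 0.5% DMSO. Maximal inhibition is defined by 1 uM BEZ235 for Akt and 1 uM MEK Inhibitor II for ERK.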

[8] = system: phospho-Akt in HCC827 (Wild-type); assay: In-Cell Western phospho-Akt, HCC827; settings: Homo sapiens, 1 h; HCC827, one hour treatment; read-out: In-Cell Western HCC827 (Wild-type) Akt (P)
Method: In-cell phosphorylation assays for Erk and Akt were performed on several of the compounds and exemplary results are shown in Table 3 below using HCC827 and A375 cell lines for wild type K-Ras and Panc1 and Panc10.05 cell lines for G12D K-Ras mutants. Results are expressed in μM and corresponding structures are shown in FIGS. 2A-2G and Examples 1-152, above.
Cells are seeded in complete medium into black sided, clear-bottom 384-well microplates at 3000 cells/[…]/well. Plates are returned to 37° C. CO2 incubator for 18 hr. Drug is made as 200× in DMSO and diluted into medium to 10×. To each well is added 4 ul 10× test article or controls, and plates are returned to the incubator. Final assay DMSO concentration is 0.5%. After one hour, cells are fixed in formaldehyde, rinsed & permeabilized with triton X-100, and blocked with BSA/Goat serum blocking solution. Primary phospho-Akt and phospho-ERK antibodies are added and plates are incubated overnight at 4° C. Plates are rinsed with Tween-20 wash buffer and secondary antibody (Goat anti-rabbit, Thermofisher) is added. After 2 hours, plates are rinsed in Tween-20 wash buffer, and then PBS. Plates are imaged on the Celigo (Nexcelom) and cellular fluorescence is quantitated. Full inhibition of phospho-Akt is achieved with 1 uM BEZ235 (Sellekchem), while full inhibition of phospho-ERK is achieved with 1 uM MEK Inhibitor II Calbiochem). EC50 values are calculated using Graphpad Prism.

[9] = system: phospho-ERK in Panc1 (G12D); assay: In-Cell Western phospho-ERK, Panc1; settings: Homo sapiens, PANC-1, 1 h; Panc1, one hour treatment; read-out: In-Cell Western Panc1 (G12D) Erk (P)
How it was run: as §2

[10] = system: phospho-Akt in Panc1 (G12D); assay: In-Cell Western phospho-Akt, Panc1; settings: Homo sapiens, PANC-1, 1 h; Panc1, one hour treatment; read-out: In-Cell Western Panc1 (G12D) Akt (P)
How it was run: as §2

[11] = biological target: T1, wild type K-Ras (Homo sapiens, UniProt P01116); assay: G-LISA Ras activation, 293H cells transfected with Ras wild-type, EGF stimulated; settings: compound 1 hour, then 100 ng/ml EGF 2 minutes
T1 construct: expressed in transfected cells; host or cells: 293H cells
T1 sequence (P01116 whole entry): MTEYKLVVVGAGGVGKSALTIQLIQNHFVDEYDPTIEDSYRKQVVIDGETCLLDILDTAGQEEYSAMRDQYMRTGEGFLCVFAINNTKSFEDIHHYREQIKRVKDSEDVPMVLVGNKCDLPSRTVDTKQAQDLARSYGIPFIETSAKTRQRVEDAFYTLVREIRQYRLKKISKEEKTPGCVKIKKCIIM
How it was run: (§3)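 Mutant or wild-type Ras was expressed transiently in 293H cells, which were incubated 1 hour with compound across 3.125-25 μM. G-LISA on cold lysates gave Ras activation, wild-type cells having first been EGF-stimulated (100 ng/ml, 2 min).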

[12] = biological target: T2, K-Ras G12D (Homo sapiens, UniProt P01116, G12D); assay: G-LISA Ras activation, 293H cells transfected with G12D mutant; settings: compound 1 hour
T2 construct: expressed in transfected cells; host or cells: 293H cells
T2 sequence (P01116 whole entry G12D): as the sequence (P01116 whole entry) above, with G12D counted along it
How it was run: as §3

[13] = system: A375 (K-Ras wild type cell line); assay: Viability assay (CellTiterBlue, 72 hr) A375; settings: Homo sapiens, A-375, GI50, CellTiterBlue
How it was run: as §1

[14] = system: phospho-ERK in A375 (Wild-type); assay: In-Cell Western phospho-ERK, A375; settings: Homo sapiens, A-375, 1 h; A375, one hour treatment; read-out: In-Cell Western A375 (Wild-type) Erk (P)
How it was run: as §2

[15] = system: phospho-Akt in A375 (Wild-type); assay: In-Cell Western phospho-Akt, A375; settings: Homo sapiens, A-375, 1 h; A375, one hour treatment; read-out: In-Cell Western A375 (Wild-type) Akt (P)
How it was run: as §2

[16] = system: phospho-ERK in Panc10.05 (G12D); assay: In-Cell Western phospho-ERK, Panc10.05; settings: Homo sapiens, Panc1005, 1 h; Panc10.05, one hour treatment; read-out: In-Cell Western Panc10.05 (G12D) Erk (P)
How it was run: as §2

[17] = system: phospho-Akt in Panc10.05 (G12D); assay: In-Cell Western phospho-Akt, Panc10.05; settings: Homo sapiens, Panc1005, 1 h; Panc10.05, one hour treatment; read-out: In-Cell Western Panc10.05 (G12D) Akt (P)
How it was run: as §2

SMILES: CC(C)c1nn(C)cc1C(=O)Nc1nc(-c2ccc3c(c2)CCC(=O)N3)cs1 [Compound 32, 3-isopropyl-1-methyl-N-(4-(2-oxo-1,2,3,4-tetrahydroquinolin-6-yl)thiazol-2-yl)-1H-pyrazole-4-carboxamide]
- IC50 [1]: > 25 µM
- IC50 [2]: 9 µM
- IC50 [3]: 8 µM
- IC50 [4]: > 25 µM
- IC50 [5]: > 25 µM
- IC50 [6]: > 25 µM
- EC50 [7]: 20 µM
- EC50 [8]: > 25 µM
- EC50 [9]: > 25 µM
- EC50 [10]: 26 µM

SMILES: Cn1cc(C(=O)Nc2nc(-c3ccc4c(c3)CCC(=O)N4)cs2)cn1 [Compound 28, 1-methyl-N-(4-(2-oxo-1,2,3,4-tetrahydroquinolin-6-yl)thiazol-2-yl)-1H-pyrazole-4-carboxamide]
- IC50 [1]: > 25 µM
- IC50 [2]: > 25 µM
- IC50 [3]: > 25 µM
- IC50 [4]: > 25 µM
- IC50 [5]: > 25 µM
- IC50 [6]: > 25 µM
- EC50 [7]: 16 µM
- EC50 [8]: > 25 µM
- EC50 [9]: > 25 µM
- EC50 [10]: > 25 µM

SMILES: COc1nn(C)cc1C(=O)Nc1nc(-c2ccc3c(c2)CCC(=O)N3)cs1 [Compound 42, 3-methoxy-1-methyl-N-(4-(2-oxo-1,2,3,4-tetrahydroquinolin-6-yl)thiazol-2-yl)-1H-pyrazole-4-carboxamide]
- IC50 [1]: > 25 µM
- IC50 [2]: > 25 µM
- IC50 [3]: > 25 µM
- IC50 [4]: > 25 µM
- IC50 [5]: > 25 µM
- IC50 [6]: > 25 µM
- EC50 [7]: > 25 µM
- EC50 [8]: > 25 µM
- EC50 [9]: > 25 µM
- EC50 [10]: > 25 µM

SMILES: Cc1nn(-c2ccccc2)cc1C(=O)Nc1nc(-c2ccc3c(c2)CCC(=O)N3)cs1 [Compound 31, 3-methyl-N-(4-(2-oxo-1,2,3,4-tetrahydroquinolin-6-yl)thiazol-2-yl)-1-phenyl-1H-pyrazole-4-carboxamide]
- IC50 [1]: > 25 µM
- IC50 [2]: > 25 µM
- IC50 [3]: > 25 µM
- IC50 [4]: > 25 µM
- IC50 [5]: > 25 µM
- IC50 [6]: > 25 µM
- EC50 [7]: > 25 µM
- EC50 [8]: > 25 µM
- EC50 [9]: > 25 µM
- EC50 [10]: > 25 µM

SMILES: Cc1nc(C)c(C(=O)Nc2nc(-c3ccc4c(c3)CCC(=O)N4C3CCCC3)cs2)o1 [Compound 69, N-(4-(1-cyclopentyl-2-oxo-1,2,3,4-tetrahydroquinolin-6-yl)thiazol-2-yl)-2,4-dimethyloxazole-5-carboxamide]
- IC50 [11]: 18.6 µM
- IC50 [12]: 8.1 µM
- IC50 [1]: > 25 µM
- IC50 [2]: > 25 µM
- IC50 [3]: 2 µM
- IC50 [13]: > 25 µM
- IC50 [4]: 7 µM
- IC50 [5]: 3 µM
- IC50 [6]: 2 µM
- EC50 [7]: 5 µM
- EC50 [14]: 3 µM
- EC50 [15]: 2 µM
- EC50 [9]: 8 µM
- EC50 [10]: 6 µM
- EC50 [16]: 2 µM
- EC50 [17]: 17 µM
